In patent publication US12247033B2, “Triazole-substituted imidazo[1,2-a]pyrimidines as cGAS inhibitors” (GlaxoSmithKline Intellectual Property Development Limited, priority 2022, dated 2025):
Counter-ions that a name gives are not always drawn.

test system: CGAS; assay: CGAS whole blood cytokine release assay (384-well, BacMam stimulation, IP-10 by cytometric bead array); assay type: cell-based; details: Homo sapiens, 6 h; read-out: hWB pXC50 (converted)
Method: Blood collection: Blood was collected in a tube containing 10% Sodium Heparin (5 ml/45 ml blood final).
Protocol for CGAS Whole Blood Cytokine Release Assay: Compounds serial diluted at 1:3 were provided at 150 nL per well, in a 384 well polypropylene microplate (cat. 781280; Greiner Bio-One, Frickenhausen, Germany). 5 μL of PBS/20% Null BacMam was dispensed to all wells except for column 18 on a Multidrop Combi (Thermo Scientific, Waltham, MA). 5 uL of PBS was dispensed into column 18. The Bravo (Agilent, Santa Clara, CA) was used to transfer 45 uL of donor derived blood into the compound plates. The Bravo protocol mixed the blood and compound/PBS 5 times. The plates were incubated at 37° C., 5% CO2, for 6 hours. At the 6 hour mark the plates were removed and centrifuged for 10 minutes at 3000 RPM. 3 uL of supernatant was transferred from the plate to a 384 well NBS microplate (cat. 4513; Corning Life Sciences, Corning, NY). These plates were sealed with adhesive foil and stored in a −80 freezer until ready for analysis.
For cytokine detection, Human IP-10 BD cytometric bead array (CBA) beads (BD Biosciences, Franklin Lakes, NJ) were used. Capture bead solution was prepared by performing a 1:50 dilution of the IP-10 capture bead stock solution in BD diluent for serum/plasma (cat. 51-9003991 BD Biosciences, Franklin Lakes, NJ). 2 μL of this solution was added per well to the assay microplates which were then sealed with adhesive foil and incubated at room temperature for 2 h in the dark. Detection reagent was further prepared by performing a 1:50 dilution of the detection reagent stock solution. 2 μL of detection reagent was added per well and microplates were sealed with adhesive foil and incubated at room temperature in the dark for 1 h. After the 1 h incubation 3 uL of BD CBA wash buffer was added per well of the microplates. Data were acquired on an iQue Screener flow cytometer. The iQue used fluorescence detection to quantify the inhibition of IP-10 present in the sample wells. A sip time of 1 second per sample was used. The blue laser with excitation of 488 nm and emission filters 585/40 nm were used to capture the mean and median of IP-10 with the detector in logarithmic mode (FL2-H).
All data analysis was carried out in IDBS ActivityBase XE.

Structure (SMILES)	IC50 [µM]
OCc1ccn2c(-c3cnc[nH]3)c(-c3nc(C(F)(F)F)n[nH]3)nc2n1 [Example 9, [3-(1H-imidazol-5-yl)-2-[3-(trifluoromethyl)-1H-1,2,4-triazol-5-yl]imidazo[1,2-a]pyrimidin-7-yl]methanol, 0.3 trifluoroacetic acid salt]	0.1
FC(F)(F)COc1ccn2c(-c3cnc[nH]3)c(-c3nc(C(F)(F)F)n[nH]3)nc2n1 [Example 12, 5-[3-(1H-imidazol-5-yl)-7-(2,2,2-trifluoroethoxy)imidazo[1,2-a]pyrimidin-2-yl]-3-(trifluoromethyl)-1H-1,2,4-triazole]	6.31
FC(F)(F)c1n[nH]c(-c2nc3ncc(CC4CCCC4)cn3c2-c2cnc[nH]2)n1 [Example 17, 5-[6-(cyclopentylmethyl)-3-(1H-imidazol-5-yl)imidazo[1,2-a]pyrimidin-2-yl]-3-(trifluoromethyl)-1H-1,2,4-triazole, trifluoroacetic acid salt]	1.26
CNCCOC(=O)OCn1cnc(-c2c(-c3nc(C(F)(F)F)n[nH]3)nc3ncccn23)c1 [Example 26, 2-(methylamino)ethyl (4-{2-[3-(trifluoromethyl)-1H-1,2,4-triazol-5-yl]imidazo[1,2-a]pyrimidin-3-yl}-1H-imidazol-1-yl)methyl carbonate, 2 trifluoroacetic acid salt]	0.0398
O=C(O)CCOC(=O)OCn1cnc(-c2c(-c3nc(C(F)(F)F)n[nH]3)nc3ncccn23)c1 [Example 32, 3-({[(4-{2-[3-(trifluoromethyl)-1H-1,2,4-triazol-5-yl]imidazo[1,2-a]pyrimidin-3-yl}-1H-imidazol-1-yl)methoxy]carbonyl}oxy)propanoic acid, 0.5 trifluoroacetic acid salt]	3.16
CC(=O)n1cnc(-c2c(-c3nc(C(F)(F)F)n[nH]3)nc3ncccn23)c1 [Example 62, 1-(4-{2-[3-(trifluoromethyl)-1H-1,2,4-triazol-5-yl]imidazo[1,2-a]pyrimidin-3-yl}-1H-imidazol-1-yl)ethan-1-one]	0.126
FC(F)(F)c1cnc2nc(-c3nc(C(F)(F)F)n[nH]3)c(-c3cnc[nH]3)n2c1 [Example 64, 5-[3-(1H-imidazol-5-yl)-6-(trifluoromethyl)imidazo[1,2-a]pyrimidin-2-yl]-3-(trifluoromethyl)-1H-1,2,4-triazole]	0.398
FC(F)(F)c1n[nH]c(-c2nc3ncc(COC4CCOCC4)cn3c2-c2c[nH]cn2)n1 [Example 65, 5-[3-(1H-imidazol-4-yl)-6-[(oxan-4-yloxy)methyl]imidazo[1,2-a]pyrimidin-2-yl]-3-(trifluoromethyl)-1H-1,2,4-triazole]	0.501
CS(=O)(=O)N1Cc2cn3c(-c4cnc[nH]4)c(-c4nc(C(F)(F)F)n[nH]4)nc3nc2C1 [Example 67, 12-(1H-imidazol-5-yl)-5-methanesulfonyl-11-[3-(trifluoromethyl)-1H-1,2,4-triazol-5-yl]-1,5,8,10-tetraazatricyclo[7.3.0.0^3,^7]dodeca-2,7,9,11-tetraene]	2.51
CC(=O)N(C)Cc1cnc2nc(-c3nc(C(F)(F)F)n[nH]3)c(-c3cnc[nH]3)n2c1 [Example 76, N-{[3-(1H-imidazol-5-yl)-2-[3-(trifluoromethyl)-1H-1,2,4-triazol-5-yl]imidazo[1,2-a]pyrimidin-6-yl]methyl}-N-methylacetamide]	5.01
CCOCc1cnc2nc(-c3nc(C(F)F)n[nH]3)c(-c3cnc[nH]3)n2c1 [Example 85, 3-(difluoromethyl)-5-[6-(ethoxymethyl)-3-(1H-imidazol-5-yl)imidazo[1,2-a]pyrimidin-2-yl]-1H-1,2,4-triazole]	0.0501
FC(F)(F)c1ccn2c(-c3cnc[nH]3)c(-c3nc(Br)n[nH]3)nc2n1 [Example 91, 3-bromo-5-[3-(1H-imidazol-5-yl)-7-(trifluoromethyl)imidazo[1,2-a]pyrimidin-2-yl]-1H-1,2,4-triazole]	1
FC(F)(F)c1ccn2c(-c3cn[nH]c3)c(-c3nc(C(F)(F)F)n[nH]3)nc2n1 [Example 93, 5-[3-(1H-pyrazol-4-yl)-7-(trifluoromethyl)imidazo[1,2-a]pyrimidin-2-yl]-3-(trifluoromethyl)-1H-1,2,4-triazole]	2.51
COC(=O)c1ccn2c(-c3c[nH]cn3)c(-c3nc(C(F)(F)F)n[nH]3)nc2n1 [Example 100, methyl 3-(1H-imidazol-4-yl)-2-[3-(trifluoromethyl)-1H-1,2,4-triazol-5-yl]imidazo[1,2-a]pyrimidine-7-carboxylate]	0.398
FC(F)COCc1cnc2nc(-c3nc(C(F)(F)F)n[nH]3)c(-c3cnc[nH]3)n2c1 [Example 101, 5-{6-[(2,2-difluoroethoxy)methyl]-3-(1H-imidazol-5-yl)imidazo[1,2-a]pyrimidin-2-yl}-3-(trifluoromethyl)-1H-1,2,4-triazole]	0.126
CCN1Cc2cn3c(-c4cnc[nH]4)c(-c4nc(C(F)(F)F)n[nH]4)nc3nc2C(F)(F)C1 [Example 108, 11-ethyl-13,13-difluoro-6-(1H-imidazol-5-yl)-5-[3-(trifluoromethyl)-1H-1,2,4-triazol-5-yl]-2,4,7,11-tetraazatricyclo[7.4.0.0^3,^7]trideca-1,3,5,8-tetraene]	0.631
FC(F)Oc1n[nH]c(-c2nc3ncccn3c2-c2cnc[nH]2)n1 [Example 113, 3-(difluoromethoxy)-5-[3-(1H-imidazol-5-yl)imidazo[1,2-a]pyrimidin-2-yl]-1H-1,2,4-triazole]	1
CCOCc1cn2c(-c3cnc[nH]3)c(-c3nc(C(F)(F)F)n[nH]3)nc2nc1C(F)(F)F [Example 115, 5-[6-(ethoxymethyl)-3-(1H-imidazol-5-yl)-7-(trifluoromethyl)imidazo[1,2-a]pyrimidin-2-yl]-3-(trifluoromethyl)-1H-1,2,4-triazole]	1.58
CC1(C)Cc2nc3nc(-c4nc(C(F)(F)F)n[nH]4)c(-c4c[nH]cn4)n3cc2CO1 [Example 137, 6-(1H-imidazol-4-yl)-12,12-dimethyl-5-[3-(trifluoromethyl)-1H-1,2,4-triazol-5-yl]-11-oxa-2,4,7-triazatricyclo[7.4.0.0^3,^7]trideca-1,3,5,8-tetraene]	0.631
FC(F)(F)c1n[nH]c(-c2nc3ncc(C4(C(F)(F)F)CC4)cn3c2-c2cnc[nH]2)n1 [Example 144, 5-[3-(1H-imidazol-5-yl)-6-[1-(trifluoromethyl)cyclopropyl]imidazo[1,2-a]pyrimidin-2-yl]-3-(trifluoromethyl)-1H-1,2,4-triazole]	0.794
O=C(COCc1cnc2nc(-c3nc(C(F)(F)F)n[nH]3)c(-c3c[nH]cn3)n2c1)N1CCCC1 [Example 147, 2-{[3-(1H-imidazol-4-yl)-2-[3-(trifluoromethyl)-1H-1,2,4-triazol-5-yl]imidazo[1,2-a]pyrimidin-6-yl]methoxy}-1-(pyrrolidin-1-yl)ethan-1-one]	5.01
Cc1ccn(CCOCc2cnc3nc(-c4nc(C(F)(F)F)n[nH]4)c(-c4c[nH]cn4)n3c2)n1 [Example 148, 5-[3-(1H-imidazol-4-yl)-6-{[2-(3-methyl-1H-pyrazol-1-yl)ethoxy]methyl}imidazo[1,2-a]pyrimidin-2-yl]-3-(trifluoromethyl)-1H-1,2,4-triazole]	3.98
